Source: US12070458B2, “Therapeutic agent composition and method of use, for treatment of mild congnitive impairment, depression, and psychological disorders” (priority 2018, dated 2024)
Residues, ends and D or L forms follow the SMILES beside them.

How the values were obtained:
[1] = system: damaged nerve tissue (crushed spinal cord); experiment: Regeneration of damaged nerve tissue after crushing the spinal cord; type: in vivo, Wistar rats; settings: 10 mM in saline, 0.75 ml four times a day at the site of injury for 14 days, versus saline
Protocol: Postnatal day 4 Wistar 10 rats were used for the study. The rats were divided in 2 groups: one group of 5 animals treated with drug solution, and the other group of animals treated with 0.9% sodium chloride (saline) solution. A drug solution containing cPG (from Bachem, 10 mM solution prepared in 0.9% sodium chloride (saline) solution) was administered four times a day in volumes of 0.75 ml to thoroughly flood the site of injury.
Two days after crushing the spinal cord, the dura of a rat was opened and a polyethylene tube was sutured to the vertebral spines and adjacent soft tissues so that the opening in one end lay directly over the injured part of the spinal cord. The tubing was brought through a subcutaneous tunnel so that its other end emerged at the base of the skull. A syringe adapter was attached to the external opening for injecting the drugs. All experiments were on a double-blind basis on 2 groups: one group of 5 animals treated with drug solution of 10 mM in saline solution, and the other group of 5 animals treated with 0.9% sodium chloride (saline) solution. Treatment of every animal was continued for 14 days, after which the animals were killed and histological sections prepared.
Postnatal day 4 Wistar 10 rats were used for the study. […]

[2] = system: 6-OHDA induced nigral-striatal lesion; experiment: 6-OHDA induced nigral-striatal lesion, apomorphine-induced contralateral rotations; type: in vivo, Wistar rats; settings: 1 mg (mg/kg) i.p. 2 hours post lesion; 7 days post-lesion, apomorphine 0.1 mg/kg; n=5; vehicle 290±18 or 292±21
Protocol: Twenty male Wistar rats (280-310 g) were used. After exposing the skull, 6-OHDA (8 μg in a base of 2 μl 0.9% saline containing 1% ascorbic acid) was administered into the right medial forebrain bundle (MFB) using co-ordinates AP +4.7 mm, R 1.6 mmv −8 mm under 3% halothane anaesthesia. 6-OHDA was injected through a 25G needle connected via a polyethylene catheter to a 100 μl Hamilton syringe. The 6-OHDA was infused by a microdialysis infusion pump at a rate of 0.5 μl/min. The needle was left in the brain for a further 3 minutes before being slowly withdrawn. The skin was sutured with 2.0 silk and the rats were allowed to recover from anaesthesia. The rats were housed in a holding room with free access to food and water at all times except during behavioural testing.
Cyclic PG was dissolved in saline. Four different doses of cPG (0, 0.1, 0.5, 1 mg/kg, Bachem) were administered intraperitoneally 2 hours post lesion.
At 7 days post-lesion, rats were injected with 0.1 mg/kg apomorphine and the number of contralateral rotations/hour was recorded and calculated using a computerised Rotameter (St Diego Instruments). Experimenter was blinded from the treatment groups.
Cyclic(tri(prolylglycyl)) was dissolved in saline solution. Four different doses of Cyclic(tri(prolylglycyl)) (0, 0.1, 0.5, 1 mg/kg, NeuroBiomed) were administered intraperitoneally 2 hours post lesion.
Cyclic Glycyl-2-Methyl Proline (cGMeP) was dissolved in saline solution. Four different doses of cGMeP (0, 0.1, 0.5, 1 mg/kg, NeuroBiomed) were administered intraperitoneally 2 hours post lesion.

[3] = system: extracellular levels of serotonin (5-HT), noradrenaline, dopamine, acetylcholine and histamine; experiment: Extracellular neurotransmitter levels in rat prefrontal cortex and hippocampus; settings: in vivo
[4] = system: scopolamine-induced memory impairment; experiment: Morris Water Maze, scopolamine-induced memory impairment; type: in vivo, Wistar rats; settings: 20 mg/kg; daily, oral; scopolamine 0.5 mg/kg i.p.

`O=C1NCC(=O)N2CCC[C@H]2C(=O)NCC(=O)N2CCC[C@H]2C(=O)NCC(=O)N2CCCC12` (stereo partly drawn) [c(PG)3, cyclic (glycyl-L-prolylglycyl-L-prolylglycyl-L-prolyl)] (HELM PEPTIDE1{G.P.G.P.G.[O=C(C1CCCN1[*:1])[*:2]]}$PEPTIDE1,PEPTIDE1,1:R1-6:R2$$$V2.0) was tested, and the “nerve growth into the lesion site (histology)” value [1] was “prolific nerve growth” and the “number of contralateral rotations/hour” value [2] was 172±69 rotations/hour.

`O=C1NCC(=O)N2CCC[C@@H]12` [cPG, cyclic Prolyl Glycine] was tested, and the “extracellular levels of serotonin (5-HT), noradrenaline, dopamine, acetylcholine and histamine” value [3] was “increases”, the “cognitive impairment induced by scopolamine (time to platform)” value [4] was “significantly reversed” and the “nerve growth into the lesion site (histology)” value [1] was “most prolific nerve growth”. For the same compound, the “number of contralateral rotations/hour” value [2] was 154±64 rotations/hour.
